# Experiments:
# Format in all cases: in vivo, human
# [1] = Safety and tolerability in adult subjects, including Phase 1 studies with healthy adult subjects; settings: approximately 281 adult subjects at various doses; single doses up to 5 mg, repeated doses up to 4 mg QD
# Description: (§1) Compound 1, or a pharmaceutically acceptable salt, solvate, or hydrate thereof, is an orally administered, selective, synthetic sphingosine 1-phosphate (S1P) receptor 1, 4, 5 modulator. […] Its safety and tolerability have been evaluated in Phase 1 studies with healthy adult subjects at single doses up to 5 mg and repeated doses up to 4 mg once daily (QD).
# lymphocyte count = assay: Single-blind, placebo-controlled, randomized study of PK, PD, safety and tolerability: lymphocyte count
# Description: (§2) A single-blind (ie, subject only), placebo-controlled, randomized, fixed-sequence, parallel design study evaluated PK, PD, safety, and tolerability in healthy Japanese and Caucasian male subjects (data reported herein is based on the preliminary clinical study report). A total of 49 subjects were enrolled and received 1 or 2 mg of Compound 1 or placebo once daily for 7 days followed by an additional single dose on Day 15, administered 1 week after a treatment-free period. […] The median percent change from baseline at Day 7 was −23.61% in the Japanese 1 mg group, −25.79% in the Caucasian 1 mg group, −50.00% in the Japanese 2 mg group, and −43.67% in the Caucasian 2 mg group. The median percent change from baseline at Day 15 (pre-dose) was 0.00% in the Japanese 1 mg group, −21.43% in the Caucasian 1 mg group, −6.67% in the Japanese 2 mg group, and −16.23% in the Caucasian 2 mg group. In depth immunophenotyping was performed in healthy subjects.
# UC = assay: Phase 2 dose-ranging study in UC patients and open-label extension study; settings: UC patients
# Description: as §1
# [2] = tested on: circulating B cells, CD4+ TCM, CD4+ TN, Th17, Th2, CD8+ TCM, and CD8+TN cells; assay: In depth immunophenotyping in healthy subjects (FIG. 3); settings: 1 or 2 mg once daily, peaked at Day 7 pre-dose
# Description: as §2
smiles,measurement,setting,value
"O=C(O)C[C@H]1CCc2c1[nH]c1ccc(OCc3ccc(C4CCCC4)c(C(F)(F)F)c3)cc21 [Compound 1, (R)-2-(7-(4-cyclopentyl-3-(trifluoromethyl)benzyloxy)-1,2,3,4-tetrahydrocyclopenta[b]indol-3-yl)acetic acid]",safety and tolerability,[1],safe and well-tolerated
same,median percent change from baseline in lymphocyte count,"lymphocyte count; Day 7, Caucasian 1 mg group, once daily for 7 days, healthy male subjects",−25.79%
same,median percent change from baseline in lymphocyte count,"lymphocyte count; Day 7, Caucasian 2 mg group, once daily for 7 days, healthy male subjects",−43.67%
same,median percent change from baseline in lymphocyte count,"lymphocyte count; Day 7, Japanese 1 mg group, once daily for 7 days, healthy male subjects",−23.61%
same,median percent change from baseline in lymphocyte count,"lymphocyte count; Day 7, Japanese 2 mg group, once daily for 7 days, healthy male subjects",−50.00%
same,median percent change from baseline in lymphocyte count,"lymphocyte count; Day 15 (pre-dose), after 1 week treatment-free period, Caucasian 1 mg group",−21.43%
same,median percent change from baseline in lymphocyte count,"lymphocyte count; Day 15 (pre-dose), after 1 week treatment-free period, Caucasian 2 mg group",−16.23%
same,median percent change from baseline in lymphocyte count,"lymphocyte count; Day 15 (pre-dose), after 1 week treatment-free period, Japanese 1 mg group",0.00%
same,median percent change from baseline in lymphocyte count,"lymphocyte count; Day 15 (pre-dose), after 1 week treatment-free period, Japanese 2 mg group",−6.67%
same,median lymphocyte count,"lymphocyte count; all treatment groups, from first dose (Day 2) through end of repeated dosing period on Day 8",Progressive decreases
same,"total lymphocyte count, including Th2 T cells","lymphocyte count; healthy subjects, 1 or 2 mg once daily",dose-dependent decrease
same,endoscopic and symptomatic improvements versus placebo,UC; 2 mg QD for 12 weeks,clinically meaningful and statistically significant endoscopic and symptomatic improvements
same,beneficial effects in open-label extension study,UC; up to 46 weeks,Sustained beneficial effects
same,"median number of circulating B cells, CD4+ TCM, CD4+ TN, Th17, Th2, CD8+ TCM, and CD8+TN cells",[2],dose-dependent decrease

# From US20220409580A1, “METHODS OF TREATING CONDITIONS RELATED TO THE S1P1 RECEPTOR” (Arena Pharmaceuticals, Inc., priority 2019, published 2022)
